How the values were obtained:
[1] = set-up: method as in PMID 12667689; conditions: PAMPA-BBB; cited from earlier work
AChE = AChE (Electrophorus electricus, UniProt O42275); assay: AChE inhibition; assay type: biochemical; conditions: 10 µM compound; read-out: Residual Activity at 10 µM (%) AChE
MAO-B [2] = target: T1, MAO-B (Homo sapiens, UniProt P27338); assay: MAO-B inhibition assay (benzylamine substrate) and kinetics; assay type: biochemical; conditions: for remaining activity at 10 µM: 10 µM compound, read-out: Residual Activity at 10 µM (%) MAO-B; for IC50: reference compounds after preincubation for 30 min with enzymes; for Ki: Lineweaver–Burk and secondary plots; for Type of MAO-B inhibition: Lineweaver–Burk plots
T1 construct: purchased Sigma-Aldrich (St. Louis, MO, USA)
T1 sequence (P27338 1-520): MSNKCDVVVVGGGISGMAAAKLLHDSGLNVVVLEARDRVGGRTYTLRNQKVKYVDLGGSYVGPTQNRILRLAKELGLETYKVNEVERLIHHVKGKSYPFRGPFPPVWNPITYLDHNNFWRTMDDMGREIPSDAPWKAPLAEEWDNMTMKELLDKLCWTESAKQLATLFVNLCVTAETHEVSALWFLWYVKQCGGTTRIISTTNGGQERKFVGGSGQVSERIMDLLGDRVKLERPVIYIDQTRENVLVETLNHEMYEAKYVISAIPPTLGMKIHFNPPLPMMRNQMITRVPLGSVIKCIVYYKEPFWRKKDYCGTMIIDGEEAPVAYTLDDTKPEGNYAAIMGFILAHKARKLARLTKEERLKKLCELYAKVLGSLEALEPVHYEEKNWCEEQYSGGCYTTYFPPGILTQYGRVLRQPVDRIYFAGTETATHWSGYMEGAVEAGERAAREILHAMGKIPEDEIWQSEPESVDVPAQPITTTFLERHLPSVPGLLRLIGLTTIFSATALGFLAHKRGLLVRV
Description: (§1) The enzymes and chemicals were purchased from Sigma-Aldrich (St. Louis, MO, USA).

recombinant human MAO-A = target: T2, recombinant human MAO-A (Homo sapiens, UniProt P21397); assay: MAO-A inhibition assay (kynuramine substrate) and kinetics; assay type: biochemical; conditions: for remaining activity at 10 µM: 10 µM compound, read-out: Residual Activity at 10 µM (%) MAO-A; for IC50: reference compounds after preincubation for 30 min with enzymes; for Ki: Lineweaver–Burk and secondary plots; for Type of MAO-A inhibition: Lineweaver–Burk plots
T2 construct: purchased Sigma-Aldrich (St. Louis, MO, USA)
T2 sequence (P21397 1-527): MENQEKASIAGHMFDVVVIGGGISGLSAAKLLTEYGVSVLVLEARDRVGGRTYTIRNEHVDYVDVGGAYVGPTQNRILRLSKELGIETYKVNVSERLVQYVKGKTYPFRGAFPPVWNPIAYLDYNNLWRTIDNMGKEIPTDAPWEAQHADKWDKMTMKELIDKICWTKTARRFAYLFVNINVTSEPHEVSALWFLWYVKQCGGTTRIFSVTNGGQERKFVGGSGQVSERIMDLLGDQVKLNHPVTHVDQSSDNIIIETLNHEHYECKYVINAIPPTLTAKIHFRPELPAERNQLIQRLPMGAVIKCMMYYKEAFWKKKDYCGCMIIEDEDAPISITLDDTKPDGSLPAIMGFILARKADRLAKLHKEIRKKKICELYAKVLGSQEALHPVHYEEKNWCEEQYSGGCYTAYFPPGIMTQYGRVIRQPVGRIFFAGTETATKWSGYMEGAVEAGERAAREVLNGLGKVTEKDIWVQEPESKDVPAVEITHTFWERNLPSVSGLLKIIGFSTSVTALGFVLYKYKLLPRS
Description: as §1

[3] = Parallel artificial membrane permeability assay (PAMPA), BBB; conditions: for Papp: PAMPA
Description: The CNS bioavailability of the molecules was confirmed by a parallel artificial membrane permeability assay (PAMPA) [40].

MAO-B [4] = target: T1, MAO-B; assay: Reversibility of MAO-B inhibition by dialysis; assay type: biochemical
Description: Reversibilities of EH7 were analyzed using a dialysis method after preincubating with MAO-B for 30 min, as previously described. […] The relative activities for undialyzed (AU) and dialyzed (AD) samples were compared to determine the reversibility patterns.

Sequence of AChE (O42275 24-633): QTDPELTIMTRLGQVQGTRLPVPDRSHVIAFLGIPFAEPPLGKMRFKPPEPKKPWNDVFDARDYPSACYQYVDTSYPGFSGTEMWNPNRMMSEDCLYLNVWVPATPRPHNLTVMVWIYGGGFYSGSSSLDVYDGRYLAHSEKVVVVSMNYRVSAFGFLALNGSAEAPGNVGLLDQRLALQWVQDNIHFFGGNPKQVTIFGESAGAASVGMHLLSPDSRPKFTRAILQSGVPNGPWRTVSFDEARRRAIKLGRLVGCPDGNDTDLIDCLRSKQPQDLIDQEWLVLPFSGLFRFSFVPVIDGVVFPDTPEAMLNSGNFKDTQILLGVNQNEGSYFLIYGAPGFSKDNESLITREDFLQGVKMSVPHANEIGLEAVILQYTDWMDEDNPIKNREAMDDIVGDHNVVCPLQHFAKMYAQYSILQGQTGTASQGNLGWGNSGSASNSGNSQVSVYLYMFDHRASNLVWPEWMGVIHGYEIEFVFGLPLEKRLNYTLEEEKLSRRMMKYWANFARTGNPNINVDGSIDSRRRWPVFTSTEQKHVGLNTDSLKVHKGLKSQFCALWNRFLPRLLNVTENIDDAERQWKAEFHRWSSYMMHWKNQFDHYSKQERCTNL

**Q.** Which “Bibliography Pe” value [1] does the source give for `NCCc1ccc(O)c(O)c1` [Dopamine] here?
**A.** Its value is 0.2 ×10⁻⁶ cm/s.

**Q.** What does the source list for `CCOc1ccc(C2=NNC(c3ccccc3)C2)cc1` (stereo not shown) [EH1, 3-(4-ethoxyphenyl)-5-phenyl-4,5-dihydro-1H-pyrazole]?
**A.** remaining activity at 10 µM (AChE): 81 ± 6.21%; SI (selectivity index) (MAO-B [2]): >7.43; remaining activity at 10 µM (MAO-B [2]): 33.7 ± 0.96%; IC50 (MAO-B [2]): 5.38 ± 0.16 µM; remaining activity at 10 µM (recombinant human MAO-A): 99.1 ± 0.27%; IC50 (recombinant human MAO-A): > 40 µM; Papp [3]: 10.3 ± 0.33 ×10⁻⁶ cm/s

**Q.** What does the source list for `CCOc1ccc(C2=NNC(c3ccc(Cl)cc3)C2)cc1` (stereo not shown) [EH6, 5-(4-chlorophenyl)-3-(4-ethoxyphenyl)-4,5-dihydro-1H-pyrazole]?
**A.** remaining activity at 10 µM (AChE): 63.5 ± 4.99%; remaining activity at 10 µM (MAO-B [2]): 19.4 ± 1.01%; Ki (MAO-B [2]): 0.19 ± 0.016 µM; Type of MAO-B inhibition (MAO-B [2]): competitive inhibitor; IC50 (MAO-B [2]): 0.4 ± 0.051 µM; remaining activity at 10 µM (recombinant human MAO-A): 68.1 ± 0.18%; Ki (recombinant human MAO-A): 10.8 ± 1.03 µM; Type of MAO-A inhibition (recombinant human MAO-A): competitive inhibitor; IC50 (recombinant human MAO-A): 22.3 ± 0.12 µM; Papp [3]: 14.3 ± 0.8 ×10⁻⁶ cm/s

**Q.** For `CCOc1ccc(C2=NNC(c3ccc(F)cc3)C2)cc1` (stereo not shown) [EH7, 3-(4-ethoxyphenyl)-5-(4-fluorophenyl)-4,5-dihydro-1H-pyrazole], which remaining activity at 10 µM (AChE) is on record?
**A.** Its remaining activity at 10 µM is 74 ± 0.71%.

**Q.** What about the “SI (selectivity index)” value (MAO-B [2]) of the same compound?
**A.** Its value is 133.0.

**Q.** And the remaining activity at 10 µM (MAO-B [2])?
**A.** The remaining activity at 10 µM was 4.03 ± 0.53%.

**Q.** And the Ki (MAO-B [2])?
**A.** The Ki was 0.034 ± 0.0067 µM.

**Q.** And the “Type of MAO-B inhibition” value (MAO-B [2])?
**A.** The value was “competitive inhibitor”.

**Q.** And the IC50 (MAO-B [2])?
**A.** The IC50 was 0.063 ± 0.0042 µM.

**Q.** What about the remaining activity at 10 µM (recombinant human MAO-A) of the same compound?
**A.** The remaining activity at 10 µM was 46.9 ± 1.25%.

**Q.** And the Ki (recombinant human MAO-A)?
**A.** The Ki was 3.64 ± 0.18 µM.

**Q.** What about the “Type of MAO-A inhibition” value (recombinant human MAO-A) of the same compound?
**A.** Its value is “competitive inhibitor”.

**Q.** What about the IC50 (recombinant human MAO-A) of the same compound?
**A.** Its IC50 is 8.38 ± 0.88 µM.

**Q.** And the Papp [3]?
**A.** The Papp was 14.1 ± 0.71 ×10⁻⁶ cm/s.

**Q.** What about the “Relative activity of undialyzed sample (AU)” value (MAO-B [4]; EH7 0.15 µM, lazabemide 0.20 µM, pargyline 0.30 µM, 30 min preincubation) of the same compound?
**A.** The value was 12.5%.

**Q.** What about the “Relative activity of dialyzed sample (AD)” value (MAO-B [4]; EH7 0.15 µM, lazabemide 0.20 µM, pargyline 0.30 µM, 30 min preincubation, dialysis) of the same compound?
**A.** The value was 89.5%.

**Q.** What about the “Reversibility of MAO-B inhibition” value (MAO-B [4]; dialysis) of the same compound?
**A.** Its value is “reversible inhibitor”.

**Q.** Which remaining activity at 10 µM (AChE) does the source give for `CCOc1ccc(C2=NNC(c3ccc(Br)cc3)C2)cc1` (stereo not shown) [EH8, 5-(4-bromophenyl)-3-(4-ethoxyphenyl)-4,5-dihydro-1H-pyrazole] here?
**A.** Its remaining activity at 10 µM is 53.7 ± 2.15%.

**Q.** And the “SI (selectivity index)” value (MAO-B [2])?
**A.** The value was 6.3.

**Q.** And the remaining activity at 10 µM (MAO-B [2])?
**A.** The remaining activity at 10 µM was 11.3 ± 0.13%.

**Q.** What about the IC50 (MAO-B [2]) of the same compound?
**A.** The IC50 was 0.69 ± 0.017 µM.

**Q.** And the remaining activity at 10 µM (recombinant human MAO-A)?
**A.** Its remaining activity at 10 µM is 33.5 ± 0.65%.

**Q.** What about the IC50 (recombinant human MAO-A) of the same compound?
**A.** The IC50 was 4.31 ± 0.013 µM.

**Q.** And the Papp [3]?
**A.** The Papp was 14.6 ± 0.26 ×10⁻⁶ cm/s.

**Q.** Which “Bibliography Pe” value [1] does the source give for `CN1C(C(=O)Nc2ccccn2)=C(O)c2ccccc2S1(=O)=O` [Piroxicam, reference compound] here?
**A.** The value was 2.5 ×10⁻⁶ cm/s.

**Q.** What about the Papp [3] of the same compound?
**A.** The Papp was 2.43 ± 0.3 ×10⁻⁶ cm/s.

**Q.** And the “Prediction (CNS permeability)” value ([3]; PAMPA-BBB)?
**A.** Its value is “CNS+/−”.

**Q.** With `CC(=O)[C@H]1CC[C@H]2[C@@H]3CCC4=CC(=O)CC[C@]4(C)[C@H]3CC[C@]12C` [Progesterone, reference compound] as the compound, how does the “Experimental Pe” value ([3]; PAMPA-BBB) read?
**A.** The value was 9.02 ± 0.11 ×10^−6 cm/s.

Reference: publication PMC8198649, “Development of Halogenated Pyrazolines as Selective Monoamine Oxidase-B Inhibitors: Deciphering via Molecular Dynamics Approach” (Molecules, 2021)
